# US12281070B2, “Water soluble antiviral and antimicrobial compound and process for preparation thereof” (priority 2020, dated 2025)
# Columns and labels:
# [1] = tested on: Vero CCL-81 cells
# [2] = tested on: Bacillus subtilis (ATCC 6633); experiment: Evaluation of antimicrobial activity, B. subtilis; type: cell-based; conditions: 10 mg/10 ml
# [3] = tested on: SARS CoV-2 NIV2020-770 isolate; type: cell-based; conditions: 72 hours
# [4] = tested on: Staphylococcus aureus (ATCC 6538); experiment: Evaluation of antimicrobial activity, S. aureus; type: cell-based; conditions: 10 mg/10 ml
# [5] = tested on: avian influenza; set-up: species or system poultry birds; conditions: in vivo
# [6] = Oral toxicity LD50, rat; type: in vivo
# [7] = Oral toxicity LD50, mice; type: in vivo
# [8] = Water solubility / dispersibility of the synthesized substance; type: physicochemical; conditions: semi solid creamy substance as synthesized
# [9] = tested on: Escherichia coli (ATCC 8739); experiment: Evaluation of antimicrobial activity, E. coli; type: cell-based; conditions: 10 mg/10 ml
# [10] = tested on: PI-3 virus (enveloped virus); type: cell-based, Bovine parainfluenza virus
smiles,measurement,setting,value
"CCCCCCCCCCCCCCCCC(=O)OC(O)CO (stereo not shown) [Formula II, 1,2-dihydroxyethyl heptadecanoate]",cytotoxicity,[1],Dose dependent cytotoxicity
same,CC50,[1]; 72 hours,600 fold dilution
same,% reduction after 30 seconds,"[2]; contact 30 seconds, inoculum 76000000 Cfu/ml",27.63%
same,% reduction after 1 minute,[2]; contact 1 minute,44.74%
same,% reduction after 5 minutes,[2]; contact 5 minutes,59.21%
same,% reduction after 10 minutes,[2]; contact 10 minutes,65.79%
same,% reduction after 20 minutes,[2]; contact 20 minutes,99.9789%
same,inhibition of the RdRp-2 gene,[3],~40%
same,% reduction after 30 seconds,"[4]; contact 30 seconds, inoculum 74000000 Cfu/ml",31.08%
same,% reduction after 1 minute,[4]; contact 1 minute,43.24%
same,% reduction after 5 minutes,[4]; contact 5 minutes,54.05%
same,% reduction after 10 minutes,[4]; contact 10 minutes,62.16%
same,% reduction after 20 minutes,[4]; contact 20 minutes,99.9627%
same,reduction in mortality of avian influenza infected birds,[5],92%
same,LD 50,[6],4000 mg per kg wt
same,LD 50,[7],4000 mg per kg wt
same,solubility in water,[8],water soluble and/or water dispersible
same,% reduction after 30 seconds,"[9]; contact 30 seconds, inoculum 70000000 Cfu/ml",31.43%
same,% reduction after 1 minute,[9]; contact 1 minute,55.71%
same,% reduction after 5 minutes,[9]; contact 5 minutes,60%
same,% reduction after 10 minutes,[9]; contact 10 minutes,64.29%
same,% reduction after 20 minutes,[9]; contact 20 minutes,99.9851%
same,% Log reduction,[10],99.25%
same,Log10 Reduction,[10],2.12 Log10
same,Virus Titer (Log10 TCID50/mL),[10],2.50 Log10 TCID50/mL
